According to patent publication US12485192B2, “Cellular targeted label delivery system” (CELLIS AG, priority 2016, dated 2025):

Tests used:
metastatic 4T1 cancer = details: mouse, in vivo, iv
Description: After labeling, cells should be centrifuged and supernatant should be removed. This step should be repeated until no radioactivity is detected in the supernatant.

[1] = test system: CD45+ leukocyte cells (macrophages, monocytes, lymphocytes, granulocytes); experiment: Uptake of iron binding proteins by CD45+ leukocyte cells in culture; type: cell-based, mouse; details: incubation 1-4 hrs, 0.1-0.2 mg/ml protein solution, standard culture conditions; FIG. 5
Protocol: (§1) Obtained cells are incubated in ferritin solution for a time and at the concentration sufficient to ensure proper ratio of ferritin/cell for their full load and also to ensure proper contrast content to obtain proper imaging). The time and concentration may vary depending on the number of molecules encapsulated/adsorbed into the ferritin cage, status of cell activation, condition and number of their intended administration.
For example, to ensure proper load with ferritins, cells are incubated for 1-4 hrs in ferritin solution 0.2 mg/ml in standard culture conditions. The frame of ferritin concentration may vary at least between 0.01 and 4 mg/ml as well as incubation time (5 min-6 hrs or more). Adjusting time and concentration of ferritin load to cells, the influence of ferritin and treatment conditions on cell viability should be minded.
as §1, with “haemoglobin” for “ferritin”, “haemoglobin/cell” for “ferritin/cell”, “imaging.” for “imaging).”, “linked with” for “encapsulated/adsorbed into”, “haemoglobin molecule,” for “ferritin cage,”, “administration. […]” for “administration.”

Substance | PET signal (metastatic 4T1 cancer) | uptake of iron binding protein by cells [1]
18F fluorodeoxyglucose [plain 18F-1-DG] | lower PET signal | 
transferrin: human holo-transferrin purified from serum of healthy donor |  | very easily uptake
haemoglobins: human haemoglobin prepared from fresh red cells |  | very easily uptake
